Experimental findings from patent publication US20250179027A1, “CYCLOALKYL OR HETEROCYCLYL SUBSTITUTED HETEROARYL COMPOUND, AND COMPOSITION AND USE THEREOF” (Shenzhen TargetRx, Inc., priority 2022, published 2025) are described below.

For assay [1], the target named is T1, phosphorylated BTK Y223 in NIH/3T3 BTK C481S cells (Homo sapiens, UniProt Q06187, C481S).
T1 construct: expressed in transfected cells; host or cells: NIH/3T3 (mouse fibroblasts) engineered to express BTK C481S
Description: Phosphor-BTK(Y223) assay, NIH/3T3 BTK C481S cells. It is filed as cell-based. To be noted: phosphorylated BTK Y223, NIH/3T3 BTK C481S cells; read-out: NIH/3T3 BTK-C481S pBTK IC50. The method, then: (§1) The purpose of this assay is to simply, quickly and directly detect the endogenous level of BTK in cells. The specific assay steps are as follows: Day 1: NIH/3T3 BTK WT cells (7.5 k/well) and NIH/3T3 BTK C481S cells (10 k/well) were plated in 96-well plates, respectively, and cultured overnight at 37° C. and 5% CO2.
(§2) • 1. A 3-fold final concentration gradient dilution of the compound was prepared, and 50 μL was added to 100 μL of cell culture; 0.5% DMSO was used as a positive control for cell growth. • 2. The plate was incubated at 37° C., 5% CO2 for 0.5 h. • 3. Na3VO4 with a final concentration of 1 mM was added, and incubated at 37° C. and 5% CO2 for 2 hours. • 4. During the incubation, the following reagents were prepared: 1× added lysis buffer: 3 vol ddH2O+1 vol 4× lysis buffer+100× blocking reagent. p-BTK (Y223) cryptate-antibody and p-BTK (Y223) d2-antibody working solutions: 1 volume of each cryopreserved antibody (stored at −20° C.) was added to 19 times volumes of assay buffer (stored at 4° C.). • 5. After the incubation, the medium was removed and 50 μL of 1× added lysis buffer was added; The mixture was centrifuged at 500 rpm for 30 min at room temperature. • 6. The lysate was mixed well and 16 μL was transferred to a 384-well plate; 1× added lysis buffer was used as a blank control. • 7. 4 μL of pre-mixed working solutions of the two antibodies (cryptate Ab:d2 Ab=1:1) were added and the plate was sealed. • 8. The plate was incubated overnight at room temperature.
(§3) Biotek cytation3.0 microplate reader was used to read the plate at 665 nm and 620 nm, and the ratio of 665/620 nm per well was calculated.
(§4) IC50 was calculated using GraphPad Prism 7.0 software.
(§5) The following nonlinear fitting formula was used to obtain the phosphorylated BTK Y223 IC50 (half phosphorylation inhibitory concentration) of the compounds:
(§6) [formula] • X: Compound concentration log value • Y: Inhibition rate (% inhibition)
(§7) The formula for calculating cell phosphorylation inhibition rate (% inhibition rate) was: […]

Assay [2] concerns the target T2, phosphorylated BTK Y223 in NIH/3T3 BTK WT cells (Homo sapiens, UniProt Q06187).
T2 construct: expressed in transfected cells; host or cells: NIH/3T3 (mouse fibroblasts) engineered to express BTK WT
As to the kind of experiment: Phosphor-BTK(Y223) assay, NIH/3T3 BTK WT cells. It is filed as cell-based. To be noted: phosphorylated BTK Y223, NIH/3T3 BTK WT cells; read-out: NIH/3T3 BTK-WT pBTK IC50. The method, then:
as §1, §2, §3, §4, §5, §6, §7

T2 sequence (Q06187 whole entry): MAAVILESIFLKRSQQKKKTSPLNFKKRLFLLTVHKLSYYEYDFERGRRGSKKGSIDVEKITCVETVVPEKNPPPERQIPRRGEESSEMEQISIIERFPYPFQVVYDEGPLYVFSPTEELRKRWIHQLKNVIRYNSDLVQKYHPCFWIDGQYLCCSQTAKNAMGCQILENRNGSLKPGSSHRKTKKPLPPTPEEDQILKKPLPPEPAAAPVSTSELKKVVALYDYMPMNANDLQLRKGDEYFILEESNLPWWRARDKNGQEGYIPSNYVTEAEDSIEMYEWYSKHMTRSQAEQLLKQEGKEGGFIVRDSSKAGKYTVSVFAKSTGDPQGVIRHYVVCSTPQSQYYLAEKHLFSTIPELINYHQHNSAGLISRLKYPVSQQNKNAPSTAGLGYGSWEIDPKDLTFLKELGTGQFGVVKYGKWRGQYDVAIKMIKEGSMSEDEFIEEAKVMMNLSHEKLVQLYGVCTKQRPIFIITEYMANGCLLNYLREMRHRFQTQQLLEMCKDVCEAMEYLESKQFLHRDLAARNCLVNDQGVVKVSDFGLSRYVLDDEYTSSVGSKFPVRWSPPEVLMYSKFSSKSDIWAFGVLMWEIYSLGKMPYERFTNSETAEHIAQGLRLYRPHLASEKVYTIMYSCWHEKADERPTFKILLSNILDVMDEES
T1 sequence (Q06187 whole entry C481S): as the sequence (Q06187 whole entry) above, with C481S counted along it

In the case of `COc1ccc(F)cc1C(=O)NCc1ccc(-c2nn(C3CCC(O)C3)c3c(=O)[nH]nc(N)c23)cc1` (stereo not shown) [Example 42, N-(4-(4-amino-1-(3-hydroxycyclopentanyl)-7-oxo-6,7-dihydro-1H-pyrazolo[3,4-d]pyridazin-3-yl)benzyl)-5-fluoro-2-methoxybenzamide], the IC50 in assay [1] and in assay [2] was 50 to 100 nM each time.
Consider `COc1ccc(F)cc1C(=O)NCc1ccc(-c2nn(C3CCCCC(O)C3)c3ncnc(N)c23)cc1` (stereo not shown) [Example 57, N-(4-(4-amino-1-(3-hydroxycycloheptyl)-1H-pyrazolo[3,4-d]pyrimidin-3-yl)benzyl)-5-fluoro-2-methoxybenzamide], for which the IC50 was in the range of 50 to 100 nM in assay [1] and 25 to 50 nM in assay [2].
Turning to `COc1ccc(F)cc1C(=O)NCc1ccc(-c2nn(C3CCCC(O)C3)c3c(=O)[nH]nc(N)c23)cc1` (stereo not shown) [Example 44, N-(4-(4-amino-1-(3-hydroxycyclohexanyl)-7-oxo-6,7-dihydro-1H-pyrazolo[3,4-d]pyridazin-3-yl)benzyl)-5-fluoro-2-methoxybenzamide], the IC50 in assay [1] lay within 100 to 500 nM; in assay [2] it was 50 to 100 nM.
With `COc1ccc(F)cc1C(=O)NCc1ccc(-c2nn(C3CCCC(C)(O)C3)c3ncnc(N)c23)cc1` (single isomer, unassigned) [Example 24, N-(4-(4-amino-1-(3-hydroxy-3-methylcyclohexanyl)-1H-pyrazolo[3,4-d]pyrimidin-3-yl)benzyl)-5-fluoro-2-methoxybenzamide], the IC50 in assay [1] was 25 to 50 nM; in assay [2] it was no more than 25 nM.
As to `COc1ccc(F)cc1C(=O)NCc1ccc(-c2nn(C3CCC(CO)OC3)c3ncnc(N)c23)cc1` (stereo not shown) [Example 15, N-(4-(4-amino-1-(6-(hydroxymethyl)tetrahydro-2H-pyran-3-yl)-1H-pyrazolo[3,4-d]pyrimidin-3-yl)benzyl)-5-fluoro-2-methoxybenzamide], the IC50 in assay [1] is 50 to 100 nM; in assay [2], no more than 25 nM.
The matching figures for `COc1ccc(F)cc1C(=O)NCc1ccc(-c2nn(C3CCC(CO)OC3)c3c(=O)[nH]nc(N)c23)cc1` (single isomer, unassigned) [Example 47, N-(4-(4-amino-1-(6-(hydroxymethyl)tetrahydro-2H-pyran-3-yl)-7-oxo-6,7-dihydro-1H-pyrazolo[3,4-d]pyridazin-3-yl)benzyl)-5-fluoro-2-methoxybenzamide]: 100 to 500 nM and 100 to 500 nM.
In the case of `COc1ccc(F)cc1C(=O)NCc1ccc(-c2nn([C@@H]3C=C[C@@H](O)C3)c3ncnc(N)c23)cc1` (single isomer, unassigned) [Example 37, trans-N-(4-(4-amino-1-(4-hydroxycyclopent-2-en-1-yl)-1H-pyrazolo[3,4-d]pyrimidin-3-yl)benzyl)-5-fluoro-2-methoxybenzamide], the figures for the IC50 in assay [1] and in assay [2] were 50 to 100 nM and 25 to 50 nM, respectively.
Turning to `COc1ccc(F)cc1C(=O)NCc1ccc(-c2cc(C3CCC(CO)OC3)n3ncnc(N)c23)cc1` (single isomer, unassigned) [Example 61, N-(4-(4-amino-7-(6-(hydroxymethyl)tetrahydro-2H-pyran-3-yl)pyrrolo[2,1-f][1,2,4]triazin-5-yl)benzyl)-5-fluoro-2-methoxybenzamide], the values for the IC50 in assay [1] and in assay [2] were 25 to 50 nM and no more than 25 nM, respectively.
On to `COc1ccc(F)cc1C(=O)NCc1ccc(-c2nn(C3CCC(CO)OC3)c(N)c2C(N)=O)cc1` (single isomer, unassigned) [Example 13, 5-amino-3-(4-((5-fluoro-2-methoxybenzamido)methyl)phenyl)-1-(6-(hydroxymethyl)tetrahydro-2H-pyran-3-yl)-1H-pyrazole-4-carboxamide], for which the IC50 in assay [1] fell in the range of 100 to 500 nM; in assay [2], 50 to 100 nM.
In the case of `COc1ccc(F)cc1C(=O)NCc1ccc(-c2nn(C3CCC(O)C3)c3ncnc(N)c23)cc1` (stereo not shown) [Example 32, N-(4-(4-amino-1-(3-hydroxycyclopentanyl)-1H-pyrazolo[3,4-d]pyrimidin-3-yl)benzyl)-5-fluoro-2-methoxybenzamide], the IC50 in assay [1] and in assay [2] was no more than 25 nM each time.
In the case of `COc1ccc(F)cc1C(=O)NCc1ccc(-c2cc(C3CCC(CO)OC3)n3ncnc(N)c23)cc1` (single isomer, unassigned) [Example 62, N-(4-(4-amino-7-(6-(hydroxymethyl)tetrahydro-2H-pyran-3-yl)pyrrolo[2,1-f][1,2,4]triazin-5-yl)benzyl)-5-fluoro-2-methoxybenzamide], the IC50 is 25 to 50 nM in assay [1] and no more than 25 nM in assay [2].
For `COc1ccc(F)cc1C(=O)NCc1ccc(-c2nn([C@@H]3C=C[C@@H](O)C3)c3ncnc(N)c23)cc1` (single isomer, unassigned) [Example 49, trans-N-(4-(4-amino-1-(4-hydroxycyclopent-2-en-1-yl)-1H-pyrazolo[3,4-d]pyrimidin-3-yl)benzyl)-5-fluoro-2-methoxybenzamide], the IC50 in assay [1] was 25 to 50 nM; in assay [2], no more than 25 nM.
`COc1ccc(F)cc1C(=O)NCc1ccc(-c2nn(C3CCC(CO)OC3)c3ncnc(N)c23)cc1` (single isomer, unassigned) [Example 16, N-(4-(4-amino-1-(6-(hydroxymethyl)tetrahydro-2H-pyran-3-yl)-1H-pyrazolo[3,4-d]pyrimidin-3-yl)benzyl)-5-fluoro-2-methoxybenzamide]: the IC50 was 100 to 500 nM in assay [1] and 50 to 100 nM in assay [2].
The matching figures for `COc1ccc(F)cc1C(=O)NCc1ccc(-c2nn(C3CCC(CO)OC3)c3ncnc(N)c23)cc1` (single isomer, unassigned) [Example 19, N-(4-(4-amino-1-(6-(hydroxymethyl)tetrahydro-2H-pyran-3-yl)-1H-pyrazolo[3,4-d]pyrimidin-3-yl)benzyl)-5-fluoro-2-methoxybenzamide]: 50 to 100 nM and 25 to 50 nM.
Turning to `COc1ccc(F)cc1C(=O)NCc1ccc(-c2nn(C3CCCC(O)C3)c(N)c2C(N)=O)cc1` (single isomer, unassigned) [Example 2, 5-amino-3-(4-((5-fluoro-2-methoxybenzoylamino)methyl)phenyl)-1-(3-hydroxycyclohexyl)-1H-pyrazole-4-carboxamide], the IC50 in assay [1] and in assay [2] was 50 to 100 nM in each case.
As for `COc1ccc(F)cc1C(=O)NCc1ccc(-c2nc(C3CCCC(O)C3)n3ccnc(N)c23)cc1` (single isomer, unassigned) [Example 21, N-(4-(8-amino-3-(3-hydroxycyclohexanyl)imidazo[1,5-a]pyrazin-1-yl)benzyl)-5-fluoro-2-methoxybenzamide], the figures for the IC50 in assay [1] and in assay [2] were 50 to 100 nM and 25 to 50 nM, respectively.
The matching figures for `COc1ccc(F)cc1C(=O)NCc1ccc(-c2nn(C3CCC(O)C3)c3c(=O)[nH]nc(N)c23)cc1` (stereo not shown) [Example 41, N-(4-(4-amino-1-(3-hydroxycyclopentanyl)-7-oxo-6,7-dihydro-1H-pyrazolo[3,4-d]pyridazin-3-yl)benzyl)-5-fluoro-2-methoxybenzamide]: 50 to 100 nM and 25 to 50 nM.
